# Laboratory results reported in the kinase profiling compilation of Christmann-Franck et al. (2016).
# Legend:
# Experiment in all cases: KINOMEscan competition binding
# Details in all cases: compound 10.0 µM
# CASK (human) = CASK (human) (UniProt O14936)
# CDK2 (human) = CDK2 (human) (UniProt P24941)
# CDKL3 (human) = CDKL3 (human) (UniProt Q8IVW4)
# CDKL5 (human) = CDKL5 (human) (UniProt O76039)
# CPK1 (P.falciparum) = tested on: CPK1 (P.falciparum)
# CRK2 (P.falciparum) = CRK2 (P.falciparum) (UniProt P61075)
# Chain of CRK2 (P.falciparum) (P61075 whole entry, looked up): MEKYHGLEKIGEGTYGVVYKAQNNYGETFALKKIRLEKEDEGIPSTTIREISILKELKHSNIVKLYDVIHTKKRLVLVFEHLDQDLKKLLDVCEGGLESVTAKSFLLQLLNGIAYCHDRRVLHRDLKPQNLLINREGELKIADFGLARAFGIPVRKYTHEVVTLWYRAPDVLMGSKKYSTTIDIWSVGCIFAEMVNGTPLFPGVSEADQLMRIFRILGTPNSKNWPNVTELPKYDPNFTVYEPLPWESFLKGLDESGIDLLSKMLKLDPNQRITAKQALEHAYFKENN
# CSNK1A1 (human) = CSNK1A1 (human) (UniProt P48729)
# DSTYK (human) = DSTYK (human) (UniProt Q6XUX3)
# EGFR (human) = EGFR (human) (UniProt P00533)
# [1] = tested on: EGFR (human), P00533 [L861Q]
# [2] = tested on: EGFR (human), P00533 [P753S; 747-752 del]
# EIF2AK1 (human) = EIF2AK1 (human) (UniProt Q9BQI3)
# ERBB3 (human) = ERBB3 (human) (UniProt P21860)
# Chain of ERBB3 (human) (P21860 whole entry, looked up): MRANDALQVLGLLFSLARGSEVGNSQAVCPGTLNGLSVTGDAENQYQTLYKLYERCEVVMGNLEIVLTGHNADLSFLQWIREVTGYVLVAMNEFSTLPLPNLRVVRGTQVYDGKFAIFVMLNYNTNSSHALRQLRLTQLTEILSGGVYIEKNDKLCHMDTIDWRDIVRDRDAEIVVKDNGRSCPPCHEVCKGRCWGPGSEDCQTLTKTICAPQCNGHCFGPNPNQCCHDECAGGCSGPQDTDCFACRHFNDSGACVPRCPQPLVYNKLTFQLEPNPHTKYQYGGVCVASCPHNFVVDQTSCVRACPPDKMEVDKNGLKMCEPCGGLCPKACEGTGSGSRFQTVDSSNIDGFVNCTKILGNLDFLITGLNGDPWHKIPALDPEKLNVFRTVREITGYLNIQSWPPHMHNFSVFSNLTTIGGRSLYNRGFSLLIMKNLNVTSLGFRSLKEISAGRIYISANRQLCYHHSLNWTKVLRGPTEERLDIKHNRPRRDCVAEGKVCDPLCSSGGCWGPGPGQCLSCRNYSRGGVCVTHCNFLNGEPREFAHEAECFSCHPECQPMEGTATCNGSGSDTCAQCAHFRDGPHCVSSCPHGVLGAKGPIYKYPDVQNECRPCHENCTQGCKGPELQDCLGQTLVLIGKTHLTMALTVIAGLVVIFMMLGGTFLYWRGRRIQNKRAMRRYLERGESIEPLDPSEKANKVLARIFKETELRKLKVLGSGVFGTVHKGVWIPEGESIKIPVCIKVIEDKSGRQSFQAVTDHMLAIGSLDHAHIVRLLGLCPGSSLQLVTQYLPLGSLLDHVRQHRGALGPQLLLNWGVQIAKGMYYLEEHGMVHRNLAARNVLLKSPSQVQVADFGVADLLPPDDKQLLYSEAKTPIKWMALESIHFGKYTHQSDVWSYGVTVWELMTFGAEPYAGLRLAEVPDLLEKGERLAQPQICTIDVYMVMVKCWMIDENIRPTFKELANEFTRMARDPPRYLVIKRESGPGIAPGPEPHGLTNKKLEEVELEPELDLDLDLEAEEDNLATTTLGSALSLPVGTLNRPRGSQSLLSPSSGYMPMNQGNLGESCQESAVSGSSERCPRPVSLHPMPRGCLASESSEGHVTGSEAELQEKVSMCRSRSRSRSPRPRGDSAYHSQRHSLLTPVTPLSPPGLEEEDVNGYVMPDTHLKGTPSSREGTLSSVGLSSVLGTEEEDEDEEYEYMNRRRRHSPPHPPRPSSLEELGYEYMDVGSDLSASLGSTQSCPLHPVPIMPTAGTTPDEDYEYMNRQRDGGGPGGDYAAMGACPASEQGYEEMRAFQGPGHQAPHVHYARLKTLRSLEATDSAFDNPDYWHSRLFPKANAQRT
# GRK1 (human) = GRK1 (human) (UniProt Q15835)
# GRK4 (human) = GRK4 (human) (UniProt P32298)
# GRK7 (human) = GRK7 (human) (UniProt Q8WTQ7)
# HIPK2 (human) = HIPK2 (human) (UniProt Q9H2X6)
# HIPK3 (human) = HIPK3 (human) (UniProt Q9H422)
# HUNK (human) = HUNK (human) (UniProt P57058)
# IRAK1 (human) = IRAK1 (human) (UniProt P51617)
# IRAK4 (human) = IRAK4 (human) (UniProt Q9NWZ3)
# MAK (human) = MAK (human) (UniProt P20794)
# MAP2K5 (human) = MAP2K5 (human) (UniProt Q13163)
# MAP3K13 (human) = MAP3K13 (human) (UniProt O43283)
# MAP3K15 (human) = MAP3K15 (human) (UniProt Q6ZN16)
# MAST1 (human) = MAST1 (human) (UniProt Q9Y2H9)
# NEK11 (human) = NEK11 (human) (UniProt Q8NG66)
# Chain of NEK11 (human) (Q8NG66 whole entry, looked up): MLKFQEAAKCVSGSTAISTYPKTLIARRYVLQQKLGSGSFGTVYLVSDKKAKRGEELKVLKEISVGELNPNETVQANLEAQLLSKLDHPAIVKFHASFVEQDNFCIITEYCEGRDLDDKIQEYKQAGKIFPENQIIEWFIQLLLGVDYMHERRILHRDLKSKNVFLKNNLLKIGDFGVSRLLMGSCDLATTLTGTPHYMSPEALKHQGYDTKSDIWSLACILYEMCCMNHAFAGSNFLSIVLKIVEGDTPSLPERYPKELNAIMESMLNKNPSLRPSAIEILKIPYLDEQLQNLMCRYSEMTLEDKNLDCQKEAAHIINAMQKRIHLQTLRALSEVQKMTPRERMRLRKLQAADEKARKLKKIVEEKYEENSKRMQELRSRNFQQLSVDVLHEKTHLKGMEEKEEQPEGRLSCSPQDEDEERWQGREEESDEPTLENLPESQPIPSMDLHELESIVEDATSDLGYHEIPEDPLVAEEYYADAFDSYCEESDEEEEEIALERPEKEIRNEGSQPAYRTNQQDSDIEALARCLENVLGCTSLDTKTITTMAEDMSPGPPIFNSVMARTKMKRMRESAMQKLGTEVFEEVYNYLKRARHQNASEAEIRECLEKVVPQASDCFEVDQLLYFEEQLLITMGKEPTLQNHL
# PIK3C2G (human) = PIK3C2G (human) (UniProt O75747)
# PIK3CA (human) = PIK3CA (human) (UniProt P42336)
# [3] = tested on: PIK3CA (human), P42336 [E545K]
# [4] = tested on: PIK3CA (human), P42336 [H1047Y]
# PIP5K1C (human) = PIP5K1C (human) (UniProt O60331)
# PLK2 (human) = PLK2 (human) (UniProt Q9NYY3)
# Chain of PLK2 (human) (Q9NYY3 whole entry, looked up): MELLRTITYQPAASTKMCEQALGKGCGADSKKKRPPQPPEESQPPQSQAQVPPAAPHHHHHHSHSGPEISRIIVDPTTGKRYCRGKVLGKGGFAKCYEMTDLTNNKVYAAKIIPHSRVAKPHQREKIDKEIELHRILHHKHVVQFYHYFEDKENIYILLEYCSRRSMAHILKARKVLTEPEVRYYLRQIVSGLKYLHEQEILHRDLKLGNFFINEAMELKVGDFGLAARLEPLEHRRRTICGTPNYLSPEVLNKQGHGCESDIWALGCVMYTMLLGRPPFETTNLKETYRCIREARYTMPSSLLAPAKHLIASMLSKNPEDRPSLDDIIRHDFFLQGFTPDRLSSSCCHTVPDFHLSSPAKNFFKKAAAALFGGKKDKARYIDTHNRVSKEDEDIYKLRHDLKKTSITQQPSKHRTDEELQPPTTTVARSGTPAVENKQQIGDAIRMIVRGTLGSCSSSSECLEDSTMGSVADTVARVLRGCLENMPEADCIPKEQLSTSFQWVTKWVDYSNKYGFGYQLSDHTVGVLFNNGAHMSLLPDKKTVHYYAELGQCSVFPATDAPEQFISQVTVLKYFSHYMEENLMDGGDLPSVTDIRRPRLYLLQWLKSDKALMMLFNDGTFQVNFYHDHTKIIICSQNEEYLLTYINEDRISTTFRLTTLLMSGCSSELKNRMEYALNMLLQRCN
# RPS6KB1 (human) = RPS6KB1 (human) (UniProt P23443)
# Chain of RPS6KB1 (human) (P23443 whole entry, looked up): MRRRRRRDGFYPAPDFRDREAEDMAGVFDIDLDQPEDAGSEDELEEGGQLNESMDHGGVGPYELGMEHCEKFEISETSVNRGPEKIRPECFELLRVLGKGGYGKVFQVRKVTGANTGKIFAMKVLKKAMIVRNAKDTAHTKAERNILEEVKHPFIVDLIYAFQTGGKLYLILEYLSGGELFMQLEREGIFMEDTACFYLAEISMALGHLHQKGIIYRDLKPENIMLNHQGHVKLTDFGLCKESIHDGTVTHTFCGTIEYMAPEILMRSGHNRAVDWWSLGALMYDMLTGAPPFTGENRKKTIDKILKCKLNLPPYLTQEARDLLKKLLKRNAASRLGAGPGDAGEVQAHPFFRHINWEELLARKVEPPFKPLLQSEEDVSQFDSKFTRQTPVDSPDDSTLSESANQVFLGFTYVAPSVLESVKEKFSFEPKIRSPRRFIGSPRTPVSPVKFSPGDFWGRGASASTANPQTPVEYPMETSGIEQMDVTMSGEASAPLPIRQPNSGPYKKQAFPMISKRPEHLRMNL
# SGK3 (human) = SGK3 (human) (UniProt Q96BR1)
# STK39 (human) = STK39 (human) (UniProt Q9UEW8)
# TAOK2 (human) = TAOK2 (human) (UniProt Q9UL54)
# TIE1 (human) = TIE1 (human) (UniProt P35590)
# VRK2 (human) = VRK2 (human) (UniProt Q86Y07)
# YSK4 (human) = YSK4 (human) (UniProt Q56UN5)
# Chain of YSK4 (human) (Q56UN5 whole entry, looked up): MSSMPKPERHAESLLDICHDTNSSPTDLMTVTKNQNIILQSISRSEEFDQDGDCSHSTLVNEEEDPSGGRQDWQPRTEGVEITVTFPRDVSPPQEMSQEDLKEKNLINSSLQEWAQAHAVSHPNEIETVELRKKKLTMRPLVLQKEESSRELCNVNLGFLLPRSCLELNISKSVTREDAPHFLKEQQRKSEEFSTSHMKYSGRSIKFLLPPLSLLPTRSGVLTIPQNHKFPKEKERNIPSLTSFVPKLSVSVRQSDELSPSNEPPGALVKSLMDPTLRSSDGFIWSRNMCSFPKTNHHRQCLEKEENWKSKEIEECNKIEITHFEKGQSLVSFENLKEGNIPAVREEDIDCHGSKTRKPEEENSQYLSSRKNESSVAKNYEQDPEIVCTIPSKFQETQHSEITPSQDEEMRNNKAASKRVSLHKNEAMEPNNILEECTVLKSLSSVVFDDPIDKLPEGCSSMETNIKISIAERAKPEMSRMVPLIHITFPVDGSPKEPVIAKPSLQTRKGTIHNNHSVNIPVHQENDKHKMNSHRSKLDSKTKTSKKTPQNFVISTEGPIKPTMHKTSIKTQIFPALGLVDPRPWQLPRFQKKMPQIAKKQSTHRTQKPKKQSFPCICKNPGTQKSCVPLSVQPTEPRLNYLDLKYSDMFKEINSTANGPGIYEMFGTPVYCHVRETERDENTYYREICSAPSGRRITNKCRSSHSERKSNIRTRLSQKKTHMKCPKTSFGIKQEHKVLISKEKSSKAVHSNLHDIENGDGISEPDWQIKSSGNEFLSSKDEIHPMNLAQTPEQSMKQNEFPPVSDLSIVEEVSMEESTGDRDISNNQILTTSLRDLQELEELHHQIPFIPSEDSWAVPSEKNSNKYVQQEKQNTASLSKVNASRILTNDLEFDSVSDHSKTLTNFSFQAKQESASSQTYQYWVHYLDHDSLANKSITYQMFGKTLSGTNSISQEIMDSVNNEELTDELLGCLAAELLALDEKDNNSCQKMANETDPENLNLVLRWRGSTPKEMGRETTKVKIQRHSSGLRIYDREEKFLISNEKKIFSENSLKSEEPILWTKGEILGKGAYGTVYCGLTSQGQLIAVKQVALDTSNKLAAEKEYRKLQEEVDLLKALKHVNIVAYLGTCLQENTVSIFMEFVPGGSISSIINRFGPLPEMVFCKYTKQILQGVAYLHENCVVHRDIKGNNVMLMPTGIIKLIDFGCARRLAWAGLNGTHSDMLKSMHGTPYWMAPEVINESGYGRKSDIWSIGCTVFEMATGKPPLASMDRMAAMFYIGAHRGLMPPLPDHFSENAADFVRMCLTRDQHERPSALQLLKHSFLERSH
SMILES,"kinase still bound, per cent of control (CASK (human))","kinase still bound, per cent of control (CDK2 (human))","kinase still bound, per cent of control (CDKL3 (human))","kinase still bound, per cent of control (CDKL5 (human))","kinase still bound, per cent of control (CPK1 (P.falciparum))","kinase still bound, per cent of control (CRK2 (P.falciparum))","kinase still bound, per cent of control (CSNK1A1 (human))","kinase still bound, per cent of control (DSTYK (human))","kinase still bound, per cent of control (EGFR (human))","kinase still bound, per cent of control [1]","kinase still bound, per cent of control [2]","kinase still bound, per cent of control (EIF2AK1 (human))","kinase still bound, per cent of control (ERBB3 (human))","kinase still bound, per cent of control (GRK1 (human))","kinase still bound, per cent of control (GRK4 (human))","kinase still bound, per cent of control (GRK7 (human))","kinase still bound, per cent of control (HIPK2 (human))","kinase still bound, per cent of control (HIPK3 (human))","kinase still bound, per cent of control (HUNK (human))","kinase still bound, per cent of control (IRAK1 (human))",also measured
O=C(NC1CC1)c1cccc(-c2ccc3c(NC(=O)C4CC4)n[nH]c3c2)c1,82%,3.4%,55%,42%,18%,100%,100%,71%,96%,69%,96%,100%,69%,100%,14%,84%,36%,62%,64%,82%,"kinase still bound, per cent of control (IRAK4 (human)): 88%; kinase still bound, per cent of control (MAK (human)): 51%; kinase still bound, per cent of control (MAP2K5 (human)): 5%; kinase still bound, per cent of control (MAP3K13 (human)): 64%; kinase still bound, per cent of control (MAP3K15 (human)): 100%; kinase still bound, per cent of control (MAST1 (human)): 94%; kinase still bound, per cent of control (NEK11 (human)): 95%; kinase still bound, per cent of control (PIK3C2G (human)): 100%; kinase still bound, per cent of control (PIK3CA (human)): 99%; kinase still bound, per cent of control [3]: 95%; kinase still bound, per cent of control [4]: 89%; kinase still bound, per cent of control (PIP5K1C (human)): 12%; kinase still bound, per cent of control (PLK2 (human)): 88%; kinase still bound, per cent of control (RPS6KB1 (human)): 100%; kinase still bound, per cent of control (SGK3 (human)): 42%; kinase still bound, per cent of control (STK39 (human)): 99%; kinase still bound, per cent of control (TAOK2 (human)): 20%; kinase still bound, per cent of control (TIE1 (human)): 31%; kinase still bound, per cent of control (VRK2 (human)): 100%; kinase still bound, per cent of control (YSK4 (human)): 5.9%"
C=CC(=O)Nc1cc(NC(=O)c2ccc(C)c(NC(=O)c3ccno3)c2)cc(C(F)(F)F)c1,83%,100%,90%,100%,94%,98%,100%,100%,79%,100%,79%,100%,100%,86%,100%,100%,86%,100%,100%,100%,"kinase still bound, per cent of control (IRAK4 (human)): 99%; kinase still bound, per cent of control (MAK (human)): 84%; kinase still bound, per cent of control (MAP2K5 (human)): 80%; kinase still bound, per cent of control (MAP3K13 (human)): 98%; kinase still bound, per cent of control (MAP3K15 (human)): 77%; kinase still bound, per cent of control (MAST1 (human)): 100%; kinase still bound, per cent of control (NEK11 (human)): 100%; kinase still bound, per cent of control (PIK3C2G (human)): 100%; kinase still bound, per cent of control (PIK3CA (human)): 76%; kinase still bound, per cent of control [3]: 95%; kinase still bound, per cent of control [4]: 95%; kinase still bound, per cent of control (PIP5K1C (human)): 100%; kinase still bound, per cent of control (PLK2 (human)): 100%; kinase still bound, per cent of control (RPS6KB1 (human)): 87%; kinase still bound, per cent of control (SGK3 (human)): 100%; kinase still bound, per cent of control (STK39 (human)): 86%; kinase still bound, per cent of control (TAOK2 (human)): 87%; kinase still bound, per cent of control (TIE1 (human)): 100%; kinase still bound, per cent of control (VRK2 (human)): 100%; kinase still bound, per cent of control (YSK4 (human)): 74%"
O=C1Nc2ccc(I)cc2/C1=C/c1cc(Br)c(O)c(Br)c1,74%,97%,88%,92%,24%,90%,81%,66%,56%,55%,50%,57%,87%,92%,21%,73%,7.6%,8%,2.8%,100%,"kinase still bound, per cent of control (IRAK4 (human)): 90%; kinase still bound, per cent of control (MAK (human)): 100%; kinase still bound, per cent of control (MAP2K5 (human)): 56%; kinase still bound, per cent of control (MAP3K13 (human)): 100%; kinase still bound, per cent of control (MAP3K15 (human)): 80%; kinase still bound, per cent of control (MAST1 (human)): 100%; kinase still bound, per cent of control (NEK11 (human)): 100%; kinase still bound, per cent of control (PIK3C2G (human)): 44%; kinase still bound, per cent of control (PIK3CA (human)): 85%; kinase still bound, per cent of control [3]: 100%; kinase still bound, per cent of control [4]: 76%; kinase still bound, per cent of control (PIP5K1C (human)): 19%; kinase still bound, per cent of control (PLK2 (human)): 71%; kinase still bound, per cent of control (RPS6KB1 (human)): 81%; kinase still bound, per cent of control (SGK3 (human)): 73%; kinase still bound, per cent of control (STK39 (human)): 100%; kinase still bound, per cent of control (TAOK2 (human)): 71%; kinase still bound, per cent of control (TIE1 (human)): 86%; kinase still bound, per cent of control (VRK2 (human)): 82%; kinase still bound, per cent of control (YSK4 (human)): 0.4%"
